# In patent US10723998B2, “Application of ethyl p-methoxycinnamate and derivatives thereof in maintaining self-renewal and pluripotency of stem cells” (NORTHEAST NORMAL UNIVERSITY, priority 2015, dated 2020):
# Test system: Oct4 promoter
# Experiment: Luciferase reporter gene assay of derivatives on Oct4 expression (co-transfection with pCMV-β-gal) in P19 cells
# Format: cell-based, mouse
# Details: 5 μg/mL, 12-24 h, DMSO control, FIG. 6
# Experimental: The effect of derivatives of ethyl p-methoxycinnamate on Oct4 expression was assayed by a luciferase reporter gene method, the derivatives including diethyl 4-methoxybenzalmalonate, ethyl 3-(3-methoxy-4-methoxycarbonylmethoxyphenyl)acrylate, diethyl 4-acetoxybenzylidenemalonate, chlorogenic acid, ethyl cinnamate, 3-cinnamoyloxypropyl 3-propylacrylate, ethyl 2-cyano-3,3-diphenylacrylate, ethyl 2,6-dichlorocinnamate, diethyl 4-chlorobenzylidenemalonate, ethyl 4-aminocinnate, ethyl 3-cyanocinnamate, ethyl 4-nitrocinnamate, 3-[3-(4-methoxyphenyl)acryloyloxymethyl]benzyl 3-(4-methoxyphenyl)acrylate, 4-[3-(4-methoxyphenyl)acryloyloxy]butyl-2-ynyl 3-(4-methoxyphenyl)acrylate, ethyl indole-2-carboxylate, and ethyl 6-methoxy-1-benzofuran-2-carboxylate.
# One day before transfection, mouse teratoma cells P19 were inoculated into a 24-well cell culture plate at a density of 1×10^5 cells/well, to make the cells grown to about 80% before transfection. A liposomal transfection reagent Entranster™-D from Engreen company was used to perform the transfection according to the instructions, to co-transfect the P19 cells with target plasmid (PGL3-Oct4P-Basic or pGL3-Basic) and reference plasmid (pCMV-β-gal). The total amount of the plasmid used for transfection was 1 μg/well (the target plasmid:the reference plasmid=2:1). The plasmid was added to 25 μL of serum-free DMEM culture medium, and fully mixed. 3 μL of the transfection reagent was then added to another 25 μL of serum-free DMEM culture medium, mixed well, and allowed to stand for 5 min. The DMEM culture medium containing the transfection reagent was then added to the DMEM culture medium containing the plasmid, and the mixture was immediately pipetted more than 10 times, and allowed to stand at room temperature for 30 min. 250 μL of DMEM culture medium containing 10% fetal calf serum was added to the mixed solution, and gently mixed well. The original cell culture medium in the 24-well plate was discarded, and replaced with the above mixed solution. After being cultured for 4-6 h in a 5% CO2 cell incubator at 37° C., the original culture medium was absorbed and removed, and replaced with 500 μL of DMEM culture medium containing 10% fetal calf serum. […] After subsequent continuous culture for 12-24 h, the cells were lysed, and the luciferase activity was assayed.
# Luciferase Reporter Assay System and FluoStar Optima were used to assay the luciferase activity of the transfected cell lysis solution. To 45 μL of the cell lysis solution was added 5 μL of Assay Cocktail reagent, after they were mixed well, 100 μL of Luciferin reaction solution was added, and fluorescence counting in 2 s was measured using FluoStar Optima instrument, which reflected the activity level of the studied plasmid reporter genes expressing firefly luciferase. To another 20 μL of the cell lysis solution was added 37.5 μL of β-gal Buffer followed by 12.5 μL of ONPG (6 mg/mL), and after they were mixed well, they were allowed to stand at 37° C. for 30 min. An absorption value at 450 nm was assayed using a microplate reader, which reflected the activity level of internal reference plasmid pCMV-β-gal expressing β-galactosidase. The ratio between the activity of the firefly luciferase and the activity of the β-galactosidase (β-gal) excluded the difference of the sample transfection efficiency, and could relatively objectively reflect the difference of promoter activity between samples. The relative luciferase activity of different samples was calculated through the following equation: […]
row,SMILES,effect of derivatives on the activity of the Oct4 promoter (relative luciferase activity)
1,COc1ccc(C=CC(=O)OCc2cccc(COC(=O)C=Cc3ccc(OC)cc3)c2)cc1 [3-[3-(4-methoxyphenyl)acryloyloxymethyl]benzyl 3-(4-methoxyphenyl)acrylate],have the effect of enhancing the activity of the Oct4 promoter
2,CCCC=CC(=O)OCCCOC(=O)C=Cc1ccccc1 [3-cinnamoyloxypropyl 3-propylacrylate],have the effect of enhancing the activity of the Oct4 promoter
3,COc1ccc(C=CC(=O)OCC#CCOC(=O)C=Cc2ccc(OC)cc2)cc1 [4-[3-(4-methoxyphenyl)acryloyloxy]butyl-2-ynyl 3-(4-methoxyphenyl)acrylate],have the effect of enhancing the activity of the Oct4 promoter
4,O=C(/C=C/c1ccc(O)c(O)c1)O[C@@H]1C[C@](O)(C(=O)O)C[C@@H](O)[C@H]1O [chlorogenic acid],have the effect of enhancing the activity of the Oct4 promoter
5,CCOC(=O)C(=Cc1ccc(OC(C)=O)cc1)C(=O)OCC [diethyl 4-acetoxybenzylidenemalonate],have the effect of enhancing the activity of the Oct4 promoter
6,"CCOC(=O)C(C#N)=C(c1ccccc1)c1ccccc1 [ethyl 2-cyano-3,3-diphenylacrylate]",have the effect of enhancing the activity of the Oct4 promoter
7,CCOC(=O)C=Cc1ccccc1 [ethyl cinnamate],have the effect of enhancing the activity of the Oct4 promoter
8,CCOC(=O)c1cc2ccccc2[nH]1 [ethyl indole-2-carboxylate],have the effect of enhancing the activity of the Oct4 promoter
